Values joined by “and” are separate entries in the source; they are usually repeats but may differ in a detail not shown here. Equal values may be shown once. Read-outs that look alike come from different tables or passages of the source.
Assays:
[1] = tested on: Adrenergic, Beta, Non-selective; assay: NovaScreen assay; assay type: binding
[2] = tested on: subjects with advanced solid tumors; assay: Clinical Study XL-647-002 (Phase 1, daily dosing)
Leukotriene B4, LTB4 = biological target: T1, Leukotriene B4, LTB4 (Homo sapiens, UniProt Q15722); assay: NovaScreen assay; assay type: binding; details: read-out: Inhibition, 10 μM XL-647
T1 construct: NovaScreen
T1 sequence (Q15722 whole entry): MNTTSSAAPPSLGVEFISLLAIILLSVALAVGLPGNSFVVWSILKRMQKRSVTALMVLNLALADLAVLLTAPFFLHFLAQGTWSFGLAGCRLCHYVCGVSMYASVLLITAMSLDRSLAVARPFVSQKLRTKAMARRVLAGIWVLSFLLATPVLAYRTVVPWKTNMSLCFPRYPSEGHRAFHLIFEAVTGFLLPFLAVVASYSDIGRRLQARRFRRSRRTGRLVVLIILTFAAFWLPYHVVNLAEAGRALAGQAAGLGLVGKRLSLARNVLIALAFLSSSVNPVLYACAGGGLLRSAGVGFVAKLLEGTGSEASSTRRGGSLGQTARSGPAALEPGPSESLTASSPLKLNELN

[3] = biological target: T2, Monoamine Oxidase B, Peripheral (Rattus norvegicus, UniProt P19643); assay: NovaScreen assay; assay type: biochemical; details: read-out: Inhibition, 10 μM XL-647
T2 construct: NovaScreen
T2 sequence (P19643 whole entry): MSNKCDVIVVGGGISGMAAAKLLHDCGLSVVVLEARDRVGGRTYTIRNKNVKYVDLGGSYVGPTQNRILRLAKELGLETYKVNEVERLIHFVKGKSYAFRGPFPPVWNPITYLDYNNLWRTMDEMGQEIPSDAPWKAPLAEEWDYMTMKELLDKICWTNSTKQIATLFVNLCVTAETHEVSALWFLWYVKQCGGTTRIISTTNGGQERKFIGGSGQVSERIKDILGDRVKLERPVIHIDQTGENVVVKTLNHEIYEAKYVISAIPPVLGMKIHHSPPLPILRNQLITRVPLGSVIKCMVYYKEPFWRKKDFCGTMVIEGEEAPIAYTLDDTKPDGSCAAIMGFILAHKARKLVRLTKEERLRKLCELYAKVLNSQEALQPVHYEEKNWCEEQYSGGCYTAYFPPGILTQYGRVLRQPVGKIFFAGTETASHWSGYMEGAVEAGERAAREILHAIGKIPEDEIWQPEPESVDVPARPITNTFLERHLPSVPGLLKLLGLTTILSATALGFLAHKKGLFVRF

BALB/C mice = details: mouse, in vivo
[4] = tested on: MDA-MB-231 xenograft tumors; assay: Immunohistochemistry of MDA-MB-231 xenograft tumors (Ki67, CD31); assay type: in vivo, mouse; details: 100 mg/kg, relative to vehicle
Procedure: For immunohistochemical analysis of H1975, MDA-MB-231 and other xenografts, tumors were excised after euthanasia and fixed in zinc fixative (BD Biosciences) for 48 h before being processed into paraffin blocks. Serial sections at 5 μm were obtained from the area of largest possible surface for each tumor and stained using standard methods. The following antibodies were used: Ki67 (SP6; Labvision), CD31 (MECA.32; BD Biosciences), pERK^Thr202/Tyr204 (phospho-p44/42 mitogen-activated protein kinase; Cell Signaling Technology), pAKT^Ser473 (Cell Signaling Technology), and pEGFR^Tyr1068 (Cell Signaling Technology). For immunofluorescent staining, sections were then incubated with Alexa 594-conjugated goat anti-rabbit secondary antibody (Invitrogen) and mounted in Fluorescent Mounting Medium (DAKO) containing 4′,6-diamidino-2-phenylindole (Molecular Probes) as a nuclear counterstain. Fluorescent staining was visualized using a Zeiss Axiolmager and digitally captured using a Zeiss high-resolution camera coupled to AxioVision image analysis software. Two to three nonoverlapping representative fields were captured at ×200 or ×400 magnification depending on histologic readout and quantified using the integrated morphometric analysis functions in Metamorph software (Universal Imaging Corp.). Apoptotic cells were detected using terminal deoxynucleotidyl transferase-mediated dUTP nick end labeling in situ cell death detection kit according to the manufacturer's instructions (Roche Diagnostics GmbH).
CD31-positive tumor vessels, Ki67-positive proliferating cells, and pERK staining in each tumor section were identified and quantified using the integrated morphometric analysis functions in the ACIS automatic cellular imaging system (Clarient, Inc.) and reviewed by a blinded observer. Number of CD31-positive vessels were identified across 5 to 10 randomly chosen fields of equal size at ×100 magnification in viable tumor tissue and calculated as number of vessels per square millimeter for each tumor, averaged for each treatment group, and compared with vehicle-treated controls. Percentage Ki67-positive cells were calculated as the ratio between Ki67-positive cells divided by the total number of cells identified across 5 to 10 randomly chosen fields of equal size in viable tumor tissue. The results for each tumor and treatment group were averaged and compared with vehicle-treated controls. The level of pERK staining was determined as described above and calculated as the ratio of antibody staining divided by the total number of cells identified, averaged for each treatment group, and compared with vehicle-treated controls.
Tumor proliferation was measured by staining for Ki67, which […]. The degree of tumor vascularization was measured by staining with the endothelial cell marker CD31 (Table 20).

[5] = human, in vivo
wt EGFR (A431) = wt EGFR (A431) (Homo sapiens, UniProt P00533); assay: Cell-based EGFR autophosphorylation assay in A431 cells; details: read-out: IC50, EGFR phosphorylation
Chain of wt EGFR (A431) (P00533 25-1210): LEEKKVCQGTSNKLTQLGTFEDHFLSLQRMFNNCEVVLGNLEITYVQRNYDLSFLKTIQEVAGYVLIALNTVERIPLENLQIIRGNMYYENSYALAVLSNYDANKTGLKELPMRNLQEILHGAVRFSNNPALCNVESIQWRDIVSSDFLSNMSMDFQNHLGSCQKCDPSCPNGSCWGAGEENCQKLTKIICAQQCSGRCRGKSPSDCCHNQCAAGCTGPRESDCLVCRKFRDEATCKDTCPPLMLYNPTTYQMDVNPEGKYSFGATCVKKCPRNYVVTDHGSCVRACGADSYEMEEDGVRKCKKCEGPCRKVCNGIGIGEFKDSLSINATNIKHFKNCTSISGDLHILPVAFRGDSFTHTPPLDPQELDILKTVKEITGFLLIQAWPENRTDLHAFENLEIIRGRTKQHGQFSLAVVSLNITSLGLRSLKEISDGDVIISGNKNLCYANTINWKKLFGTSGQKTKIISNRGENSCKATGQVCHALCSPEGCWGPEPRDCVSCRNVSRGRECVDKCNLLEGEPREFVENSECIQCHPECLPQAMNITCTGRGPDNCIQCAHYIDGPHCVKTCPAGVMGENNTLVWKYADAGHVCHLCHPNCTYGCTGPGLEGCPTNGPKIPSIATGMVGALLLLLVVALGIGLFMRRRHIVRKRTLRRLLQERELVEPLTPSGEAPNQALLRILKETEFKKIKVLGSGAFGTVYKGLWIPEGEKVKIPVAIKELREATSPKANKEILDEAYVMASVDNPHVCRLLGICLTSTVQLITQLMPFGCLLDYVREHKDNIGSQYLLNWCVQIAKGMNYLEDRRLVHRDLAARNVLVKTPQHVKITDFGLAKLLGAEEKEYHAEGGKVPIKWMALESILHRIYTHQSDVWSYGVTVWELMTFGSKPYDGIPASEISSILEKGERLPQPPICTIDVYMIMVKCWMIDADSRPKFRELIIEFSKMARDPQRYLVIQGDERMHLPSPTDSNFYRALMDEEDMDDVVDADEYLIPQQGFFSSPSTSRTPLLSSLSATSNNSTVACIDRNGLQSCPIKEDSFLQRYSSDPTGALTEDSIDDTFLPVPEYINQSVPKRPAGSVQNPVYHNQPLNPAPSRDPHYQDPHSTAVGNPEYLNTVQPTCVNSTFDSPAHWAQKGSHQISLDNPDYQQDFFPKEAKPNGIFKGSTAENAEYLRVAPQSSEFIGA
Procedure: A431 contains overexpressed wt human EGFR.
A431 and MDA-MB-231 cell lines were maintained and propagated as monolayer cultures in DMEM (Mediatech) containing L-glutamine supplemented with 10% heat-inactivated fetal bovine serum (Hyclone), 100 units/mL penicillin G, 100 μg/mL streptomycin (1% penicillin/streptomycin, Mediatech), and 1% nonessential amino acids (Mediatech) at 37° C. in a humidified 5% CO2 incubator.
A431 cells were seeded at 5×10^4 per well in 96-well microtiter plates (3904 Costar, VWR) and incubated in fully supplemented DMEM for 16 h after which growth medium was replaced with serum-free DMEM and the cells were incubated for an additional 24 h. […] After treatment, cell monolayers were washed with cold PBS and immediately lysed with cold lysis buffer (50 mmol/L Tris-HCl (pH 8.0), 150 mmol/L NaCl, 10% glycerol, 1% NP40, 0.1% SDS, 0.5% sodium deoxycholate, 1 mmol/L EDTA, 50 mmol/L NaF, 1 mmol/L sodium pyrophosphate, 1 mmol/L sodium orthovanadate, 2 mmol/L phenylmethylsulfonyl fluoride, 10 μg/mL aprotinin, 5 μg/mL leupeptin, 5 μg/mL pepstatin). […] Horseradish peroxidase activity was determined by reading the plates in a Victor2 plate reader following addition of the ELISA Femto substrate (Pierce).

FGFR1 = biological target: T3, FGFR1 (Homo sapiens, UniProt P11362); assay: AlphaScreen kinase assay; assay type: biochemical
T3 construct: cytoplasmic; GST-His6 (N); purchased ProQinase
T3 sequence (P11362 398-822 limits assumed): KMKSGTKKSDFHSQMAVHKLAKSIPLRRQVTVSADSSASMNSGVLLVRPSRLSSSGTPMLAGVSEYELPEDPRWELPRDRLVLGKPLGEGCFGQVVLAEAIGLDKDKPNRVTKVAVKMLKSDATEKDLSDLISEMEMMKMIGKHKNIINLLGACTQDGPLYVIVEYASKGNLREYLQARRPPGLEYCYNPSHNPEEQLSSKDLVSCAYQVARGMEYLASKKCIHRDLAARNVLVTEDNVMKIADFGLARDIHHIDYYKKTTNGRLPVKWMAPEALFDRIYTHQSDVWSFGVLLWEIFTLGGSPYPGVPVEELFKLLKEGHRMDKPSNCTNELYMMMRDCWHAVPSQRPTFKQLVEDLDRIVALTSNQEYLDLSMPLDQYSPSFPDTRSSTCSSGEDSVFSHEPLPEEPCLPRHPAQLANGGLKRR
Procedure: (§1) An AlphaScreen tyrosine kinase assay was used to measure ErbB2 and Flt-4 activity. Donor beads coated with streptavidin and acceptor beads coated with PY100 anti-phosphotyrosine antibody (Perkin-Elmer) were used. Biotinylated poly(Glu,Tyr) 4:1 was used as the substrate. Substrate phosphorylation was measured by luminescence following donor-acceptor bead addition followed by complex formation. Test compound, 3 μmol/L ATP, 3 nmol/L biotinylated poly(Glu,Tyr) 4:1, and 1 nmol/L ErbB2 (residues Q679-V1255 of human ErbB2, Proqinase) or Flt-4 (residues D725-R1298 of human Flt-4, Proqinase) were combined in a volume of 20 μL Assay Buffer (20 mM TrisHCl, pH 7.5, 10 mM MgCl2, 3 mM MnCl2, 1 mM DTT, 0.01% Triton) in a 384-well white, medium-binding microtiter plate (Greiner). Reaction mixtures were incubated for 1 h at room temperature. Reactions were quenched by addition of 10 μL of 15 to 30 μg/mL AlphaScreen bead suspension containing 75 mmol/L HEPES (pH 7.4), 300 mmol/L NaCl, 120 mmol/L EDTA, 0.3% bovine serum albumin, and 0.03% Tween 20. After 2 to 16 h of incubation at room temperature, plates were read using an AlphaQuest reader (Perkin-Elmer).
(§2) Further screening was performed using the biochemical assay methods of Example 2. Additional description of the components and concentrations are summarized in Table 8, Table 9, and Table 10, below.

Fyn = biological target: T4, Fyn (Homo sapiens, UniProt P06241); assay: AlphaScreen kinase assay; assay type: biochemical
T4 construct: His6 (N); purchased Upstate Biotechnology
T4 sequence (P06241 whole entry): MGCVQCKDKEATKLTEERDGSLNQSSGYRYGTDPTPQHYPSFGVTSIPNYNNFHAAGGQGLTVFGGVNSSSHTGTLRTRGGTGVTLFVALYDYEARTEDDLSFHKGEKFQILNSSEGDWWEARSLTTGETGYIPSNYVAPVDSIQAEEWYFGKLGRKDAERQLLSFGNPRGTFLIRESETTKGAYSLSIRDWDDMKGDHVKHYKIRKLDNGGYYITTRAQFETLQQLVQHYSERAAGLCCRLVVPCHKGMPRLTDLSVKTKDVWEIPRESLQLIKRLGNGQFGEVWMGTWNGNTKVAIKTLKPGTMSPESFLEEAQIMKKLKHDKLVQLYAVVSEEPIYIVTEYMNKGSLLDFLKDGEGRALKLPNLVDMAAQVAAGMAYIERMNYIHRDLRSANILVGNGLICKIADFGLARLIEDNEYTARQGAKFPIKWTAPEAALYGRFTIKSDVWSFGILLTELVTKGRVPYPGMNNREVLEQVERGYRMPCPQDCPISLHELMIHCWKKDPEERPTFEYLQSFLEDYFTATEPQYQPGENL
Procedure: as §1, §2

[6] = biological target: T5, Glutamate, NMDA, Glycine (Stry-insens Site) (Homo sapiens, UniProt Q05586); assay: NovaScreen assay; assay type: binding; details: read-out: Inhibition, 10 μM XL-647
T5 construct: NovaScreen

EGFR = biological target: T6, EGFR (Homo sapiens, UniProt P00533); assay: Mechanism of action study / Ki determination; assay type: biochemical
T6 construct: residues H672-A1210 of human EGFR, Proqinase; purchased Proqinase
T6 sequence (P00533 672-1210): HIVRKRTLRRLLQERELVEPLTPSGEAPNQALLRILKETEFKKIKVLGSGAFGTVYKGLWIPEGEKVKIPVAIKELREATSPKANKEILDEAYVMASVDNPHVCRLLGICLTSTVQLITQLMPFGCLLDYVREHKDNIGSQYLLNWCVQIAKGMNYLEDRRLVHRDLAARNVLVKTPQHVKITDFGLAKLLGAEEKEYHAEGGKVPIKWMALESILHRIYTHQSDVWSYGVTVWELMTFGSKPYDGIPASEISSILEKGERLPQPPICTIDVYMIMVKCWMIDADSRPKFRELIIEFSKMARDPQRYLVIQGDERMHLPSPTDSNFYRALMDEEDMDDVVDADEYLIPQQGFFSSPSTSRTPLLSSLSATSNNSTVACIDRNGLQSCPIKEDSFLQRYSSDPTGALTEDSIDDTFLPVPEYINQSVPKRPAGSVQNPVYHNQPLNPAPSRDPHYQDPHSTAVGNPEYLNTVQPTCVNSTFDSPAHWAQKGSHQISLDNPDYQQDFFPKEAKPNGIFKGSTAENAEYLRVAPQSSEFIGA
Procedure: Enzymatic activity was measured by standard methods after dilution of the enzyme-inhibitor complex.

GABA A, Agonist Site = assay: NovaScreen assay; assay type: binding
[7] = biological target: T7, Platelet Activating Factor, PAF (Homo sapiens, UniProt P25105); assay: NovaScreen assay; assay type: binding; details: read-out: Inhibition, 10 μM XL-647
T7 construct: NovaScreen
T7 sequence (P25105 whole entry): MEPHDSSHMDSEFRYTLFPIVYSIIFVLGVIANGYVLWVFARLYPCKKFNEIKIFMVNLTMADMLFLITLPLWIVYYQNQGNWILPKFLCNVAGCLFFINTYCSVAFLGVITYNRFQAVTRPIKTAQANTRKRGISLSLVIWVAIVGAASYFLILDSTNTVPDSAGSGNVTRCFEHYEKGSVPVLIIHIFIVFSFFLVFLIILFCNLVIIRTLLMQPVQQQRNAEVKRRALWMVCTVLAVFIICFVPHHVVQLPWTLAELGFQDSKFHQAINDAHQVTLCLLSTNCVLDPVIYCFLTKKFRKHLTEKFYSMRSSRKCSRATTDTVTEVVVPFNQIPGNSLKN

Leukotriene D4, LTD4 = biological target: T8, Leukotriene D4, LTD4 (Homo sapiens, UniProt Q9Y271); assay: NovaScreen assay; assay type: binding; details: read-out: Inhibition, 10 μM XL-647
T8 construct: NovaScreen
T8 sequence (Q9Y271 whole entry): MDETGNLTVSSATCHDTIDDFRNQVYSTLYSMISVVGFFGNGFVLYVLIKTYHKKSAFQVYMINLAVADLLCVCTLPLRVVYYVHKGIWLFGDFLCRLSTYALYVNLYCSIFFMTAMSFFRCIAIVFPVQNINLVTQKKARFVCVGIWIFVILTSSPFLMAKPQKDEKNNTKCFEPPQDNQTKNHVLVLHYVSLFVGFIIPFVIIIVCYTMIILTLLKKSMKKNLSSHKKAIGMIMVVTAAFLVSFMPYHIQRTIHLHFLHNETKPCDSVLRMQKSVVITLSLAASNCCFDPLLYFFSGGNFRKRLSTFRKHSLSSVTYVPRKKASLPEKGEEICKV

## COc1cc2c(Nc3ccc(Cl)c(Cl)c3F)ncnc2cc1OC[C@@H]1C[C@@H]2CN(C)C[C@@H]2C1 [XL-647, N-(3,4-dichloro-2-fluorophenyl)-7-({[(3aR,5r,6aS)-2-methyloctahydrocyclopenta[c]pyrrol-5-yl]methyl}oxy)-6-(methyloxy)quinazolin-4-amine]
[1]
  Inhibition, 10 μM XL-647: 18.01%
[2]; human, in vivo
  subjects with SD lasting greater than 3 months: 16 subjects
[2]; single oral dose daily
  MTD: 300 mg
Leukotriene B4, LTB4
  inhibition at 10 µM: 32.2%
[3]
  inhibition at 10 µM: 2.03%
BALB/C mice; 7.5 mg/kg/day
  BUN: 19.00 mg/dL
  CT-CI: 0
  Creatinine: 0.24 mg/dL
  MUCA: 1029 mOsmol
BALB/C mice; 15 mg/kg/day
  BUN: 19.29 mg/dL
  CT-CI: 0
  Creatinine: 0.29 mg/dL
  MUCA: 1029 mOsmol
[4]; 3 days
  CD31 (% Reduction): 76% and 76.5%
  Ki67 (% Reduction): 9.62%
[4]; 5 days
  CD31 (% Reduction): 90.18%
  Ki67 (% Reduction): 33.8%
[4]; 7 days
  CD31 (% Reduction): 95.7%
  Ki67 (% Reduction): 50% and 48.7%
[5]
  most common adverse events (frequency ≧10%): diarrhea, rash, fatigue, nausea, dry skin, cough, dyspnoea, anorexia, electrocardiogram QT prolongation (machine-read), vomiting, constipation, dysgeusia, upper respiratory tract infection, abdominal pain, back pain, pyrexia, dizziness, and dry mouth
Wt EGFR (A431)
  IC50: 1 nM
FGFR1
  IC50: 855 ± 96.3 nM
Fyn
  IC50: 41 ± 8.1 nM
[6]
  inhibition at 10 µM: 6.46%
EGFR
  ATP-Competitive: Yes
  Ki: 0.05 nM
  Reversible: Yes
GABA A, Agonist Site
  Inhibition, 10 μM XL-647: 1.07%
[7]
  inhibition at 10 µM: 11.7%
Leukotriene D4, LTD4
  inhibition at 10 µM: -11.9%

— patent publication US9364479B2, “Use of a receptor-type kinase modulator for treating polycystic kidney disease” (SYMPHONY EVOLUTION, INC., priority 2010, dated 2016)
